Values after ≈ are worked out from the molar mass of the structure shown. Counter-ions that a name gives are not always drawn. Like-named read-outs stand apart in the source and are kept apart here.
Columns and labels:
Assay in all cases: Antiproliferative activity in human tumor cell lines, PROTOCOL 1 and PROTOCOL 2
Assay type in all cases: cell-based
A2780/DDP = conditions: ovarian tumor cell line /DDP, 48 hours, read-out: IC50
Protocol: The assays are identified as follows: PROTOCOLS 1, 2, and 3 are described in greater detail hereinbelow. In general, according to PROTOCOLS 1 and 2, the target ABAE and/or Human Tumor cells are exposed to the compounds of Formula I for 48 hours. PROTOCOL 3 exposes ABAE cells to the compounds for 4 days. A detailed description of the Protocols is as follows: Antiproliferative Activity in Human Tumor Cell Lines The antiproliferative activity of the compounds of Formula I of the present invention is evaluated in a panel comprised of human tumor cell lines. […] Cultures are renewed after 20 passages with cells from a fresh stock of batch-frozen early passage cells. Cell lines are routinely checked for mycoplasma contamination (Genprobe). In a laminar flow hood, cells (1-5×10^4) are plated into 96-well microtiter plates in a volume of 0.1 ml/well with a bulk microtiter dispenser (Denley). […] Compounds are added using a Tomtec dispenser which simultaneously dispenses from one 96-well plate, containing the drug dilutions, to the plates containing the cells. After two days of continuous drug exposure, 50% cold trichloroacetic acid (TCA) is added to 10% final concentration to fix the cells, and after 60 minutes at 4° C., the TCA is aspirated and the plates are washed 5 times with deionized water using a microtiter plate washer. […] A 0.4% solution of the dye, sulforhodamine B, in glacial acetic acid is added to the plates, and the plates are washed 5 times with 1% glacial acetic acid using the automatic plate washed. The bound stain is solubilized with 0.1 ml of 10 mMTris base. The optical densities are read from an automatic spectrophotometric plate reader (Dynatech) directly to a main frame computer (VAX 8600). Positive controls, that include standard chemotherapeutic drugs (i.e., adriamycin, cisplatin, etc.), are included in every experiment. Background optical density measurements (complete media--cells, and complete media+drug-cells) are automatically subtracted from the appropriate control and test wells. Mean values and standard errors are determined from duplicate wells. A measure is also made of the optical density at time when the drugs are added. The number of cells after treatment (P), as % of control, is calculated for every concentration of drug, as follows: [formula] wherein: T is optical density measurement for treated cells after 48 hours; C is optical density measurement for untreated cells after 48 hours; Co is optical density measurement for cells at the time of drug addition. IC50 of Growth inhibition is calculated from the sets of P values using the RS-1 data package (BBN Software). Antiproliferative Activity in Human Tumor and Adult Bovine Aortic Endothelial Cell Lines (ABAE) The antiproliferative activity of the compounds of Formula I is evaluated in a panel comprised of human tumor cell lines as listed in Protocol 1 as well as an adult bovine aortic endothelial cell line (ABAE). This assay is a modification of PROTOCOL 1.

CACO2 = system: CACO2
Protocol: (§1) The antiproliferative activity of the compounds of Formula I in an Adult Bovine Aortic Endothelial (ABAE) cell line and in Human Tumor cells lines is evaluated in three similar assays that measure growth inhibition. The assays are identified as follows:
(§2) PROTOCOLS 1, 2, and 3 are described in greater detail hereinbelow. In general, according to PROTOCOLS 1 and 2, the target ABAE and/or Human Tumor cells are exposed to the compounds of Formula I for 48 hours. PROTOCOL 3 exposes ABAE cells to the compounds for 4 days. A detailed description of the Protocols is as follows:
(§3) Antiproliferative Activity in Human Tumor Cell Lines
(§4) The antiproliferative activity of the compounds of Formula I of the present invention is evaluated in a panel comprised of human tumor cell lines. The human tumor cell lines are from
(§5) 2) Colon tumors: MIP, CACO2, and SW620.
(§6) All cell lines are maintained in log phase in RPMI 1640 media, supplemented with 5% fetal calf serum, penicillin/streptomycin and 2 mM L-glutamine. Cultures are renewed after 20 passages with cells from a fresh stock of batch-frozen early passage cells. Cell lines are routinely checked for mycoplasma contamination (Genprobe). In a laminar flow hood, cells (1-5×10^4) are plated into 96-well microtiter plates in a volume of 0.1 ml/well with a bulk microtiter dispenser (Denley). […] At this concentration, dimethylsulfoxide has no effect on cell growth. Compounds are added using a Tomtec dispenser which simultaneously dispenses from one 96-well plate, containing the drug dilutions, to the plates containing the cells. After two days of continuous drug exposure, 50% cold trichloroacetic acid (TCA) is added to 10% final concentration to fix the cells, and after 60 minutes at 4° C., the TCA is aspirated and the plates are washed 5 times with deionized water using a microtiter plate washer. The number of cells on the plate are quantitated using a protein dye-binding assay (Monks et al., 1991). A 0.4% solution of the dye, sulforhodamine B, in […] is added to the plates, and the plates are washed 5 times with 1% glacial acetic acid using the automatic plate washed. The bound stain is solubilized with 0.1 ml of 10 mMTris base. The optical densities are read from an automatic spectrophotometric plate reader (Dynatech) directly to a main frame computer (VAX 8600).
(§7) Positive controls, that include standard chemotherapeutic drugs (i.e., adriamycin, cisplatin, etc.), are included in every experiment.
(§8) Background optical density measurements (complete media--cells, and complete media+drug-cells) are automatically subtracted from the appropriate control and test wells. Mean values and standard errors are determined from duplicate wells. A measure is also made of the optical density at time when the drugs are added. The number of cells after treatment (P), as % of control, is calculated for every concentration of drug, as follows: [formula] wherein: T is optical density measurement for treated cells after 48 hours;
(§9) C is optical density measurement for untreated cells after 48 hours;
(§10) Co is optical density measurement for cells at the time of drug addition.
(§11) IC50 of Growth inhibition is calculated from the sets of P values using the RS-1 data package (BBN Software).
(§12) Antiproliferative Activity in Human Tumor and Adult Bovine Aortic Endothelial Cell Lines (ABAE)
(§13) The antiproliferative activity of the compounds of Formula I is evaluated in a panel comprised of human tumor cell lines as listed in Protocol 1 as well as an adult bovine aortic endothelial cell line (ABAE). This assay is a modification of PROTOCOL 1. The modifications include:
(§14) 1) each concentration for each compound is tested in a single well;
(§15) 2) compounds are tested at 20, 4, 0.8, 0.16 microgram/ml and additionally in some experiments at 100 and 0.32 microgram/ml;
(§16) 3) samples are pipetted into a 96-well plate for each of the cell lines by a Beckman Biomek 1000 SL robot; […]

MIP = conditions: colon tumor cell line MIP, 48 hours
Protocol: as §1, §2, §3, §4, §5, §6, §7, §8, §9, §10, §11, §12, §13, §14, §15, §16

[1] = Caco-2, colon tumor cell line CACO2, 48 hours, read-out: IC50

| SMILES | IC50 (A2780/DDP) [µg/mL] | IC50 (CACO2; Caco-2, 48 h) [µg/mL] | IC50 (MIP) [µg/mL] | IC50 (CACO2; [1]) [µg/mL] |
| --- | --- | --- | --- | --- |
| CN(C)[C@@H]1C(O)=C(C(N)=O)C(=O)[C@@]2(O)C(O)=C3C(=O)c4c(O)ccc(I)c4CC3CC12 (stereo partly drawn) [Example 10, [4S-(4α,12aα)]-4-(Dimethylamino)-4,4,4a,5,5a,6,11,12a-octahydro-3,10,12,12a-tetrahydroxy-7-iodo-1,11-dioxo-2-naphthacenecarboxamide] | 4 (≈ 7.4 µM) | 2.8 (≈ 5.18 µM) | 0.8 (≈ 1.48 µM) |  |
| CN(C)[C@@H]1C(O)=C(C(N)=O)C(=O)[C@@]2(O)C(O)=C3C(=O)c4c(O)ccc(Br)c4CC3CC12 (stereo partly drawn) [Example 8, [4S-(4α,12aα)]-7-Bromo-4-(dimethylamino)-1,4,4a,5,5a,-6,11,12a-octahydro-3,10,12,12a-tetrahydroxy-1,11-dioxo-2-naphthacenecarboxamide sulfate] | 0.6 |  | 2 | 2.4 |
| CN(C)c1ccc(O)c2c1C[C@H]1C[C@H]3[C@H](N(C)C)C(O)=C(C(N)=O)C(=O)[C@@]3(O)C(O)=C1C2=O [Minocycline, reference compound] | 6.1 (≈ 13.3 µM) |  | 6.1 (≈ 13.3 µM) | 9 (≈ 19.7 µM) |

Source: US5574026A, “Methods for inhibiting angiogenesis proliferation of endothelial or tumor cells and tumor growth” (American Cyanamid Company, priority 1994, dated 1996)
